According to patent publication US20040197268A1, “Method of imaging amyloid deposits using substituted rhodanine derivatives” (priority 1999, published 2004):
Values joined by “and” are separate entries in the source; they are usually repeats but may differ in a detail not shown here. Identical values can stand only once.

Legend:
Aβ(1-40) [1] = molecular target: T1, Aβ(1-40) (Homo sapiens, UniProt P05067); experiment: BASST (Beta-Amyloid Self-Seeding, ThioflavinT), inhibitors of self-seeded amyloid fibril growth; format: biochemical; details: 30 μM soluble Aβ(1-40), pH 7.5, 37° C., 3 to 5 hours, thioflavin T fluorescence
T1 construct: Soluble Aβ(1-40) peptide (Bachem, Torrance, Calif.); purchased Bachem, Torrance, Calif
T1 sequence (P05067 672-711 limits assumed): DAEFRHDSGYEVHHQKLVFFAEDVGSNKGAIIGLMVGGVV
Method in brief: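 Self-seeded soluble Aβ(1-40) at 30 μM was mixed on ice with compound (3-fold dilutions, top 100 μM final; DMSO <1%) in pH 7.5 phosphate buffer with 1 M urea. After 10 min on ice, mixtures were incubated 3 to 5 hours at 37° C. Fibril growth was read as thioflavin T fluorescence (ex 440/em 485).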

Aβ(1-42) = molecular target: T2, Aβ(1-42) (Homo sapiens, UniProt P05067); experiment: BATYM Assay (Aβ(1-42) aggregation, Thioflavin T fluorescence); format: biochemical; details: Aβ 1-42 final concentration 100 μM, PBS pH 7.4, 37° C., 1 day, ThT fluorescence
T2 construct: Required Aβ(1-42)(California Peptide) was dried from its hexafluoroisopropanol (HFIP) stock solution; purchased California Peptide
T2 sequence (P05067 672-713 limits assumed): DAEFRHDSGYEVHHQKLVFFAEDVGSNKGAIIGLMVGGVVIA
Method in brief: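 HFIP-dried Aβ(1-42), redissolved in DMSO/PBS pH 7.4 and filtered, was incubated at 100 μM final with compound (2% DMSO) for 1 day at 37° C. Aggregation read by ThT (30 μM, glycine-NaOH pH 8.5) fluorescence, ex 440/em 485 nm; inhibition corrected for compound blank, IC50 by curve fit, two experiments in triplicate.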

Aβ(1-40) [2] = molecular target: T1, Aβ(1-40); experiment: BASSR (Beta-Amyloid Self-Seeding Radioassay), inhibitors of self-seeded amyloid fibril growth; format: biochemical; details: 30 μM soluble Aβ(1-40) + 125I-labeled Aβ(1-40), pH 7.5, 37° C., 3 to 5 hours, filtration
Method in brief: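 Self-seeding growth of fibrils from 30 μM soluble human Aβ(1-40) plus ^125I-labeled Aβ(1-40) was run in 50 mM sodium phosphate pH 7.5, 100 mM NaCl, 1 M urea, with compound as serial 3-fold dilutions from 100 μM final, DMSO <1%. After 10 min on ice and 3 to 5 hours at 37° C., fibrils were filter-collected and radioactivity counted.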

[3] = molecular target: T3, beta amyloid peptide Aβ(1-40) (Homo sapiens, UniProt P05067); experiment: BAPA (Beta-Amyloid Peptide Aggregation), pH 6.0; format: biochemical; details: Aβ(1-40) 33 μM, pH 6.0, 2 to 4 hours at room temperature, filtration
T3 construct: 0.5 mg/mL AP (140) peptide in 20% HFIP+0.1 μL/assay radioiodinated ^125I Aβ(1-40)
T3 sequence (P05067 672-711 limits assumed): as the sequence (P05067 672-711 limits assumed) above
Method in brief: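 HFIP-monomerised Aβ(1-40) with ^125I Aβ(1-40) tracer in 50 mM phosphate pH 6.0, DMSO <1%, incubated 2 to 4 h at room temperature. Aggregates collected by 0.2 μm filtration and counted by scintillation, background-corrected.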

| Structure (SMILES) | IC50 (Aβ(1-40) [1]) | melting point | IC50 (Aβ(1-42)) | IC50 (Aβ(1-40) [2]) | IC50 [3] |
| --- | --- | --- | --- | --- | --- |
| CCCCCN(CCCCC)c1ccc(/C=C2\SC(=S)N(CCS(=O)(=O)NC(=O)c3ccc(F)cc3)C2=O)cc1 [Example 31, (Z) 2-[5-(4-Dipentylamino-benzylidene)-4-oxo-2-thioxo-thiazolidin-3-yl]-ethanesulfonic acid 4-fluoro-benzoylamide] | 0.3 µM | 195 to 196 °C | 3.11 µM | 9 µM | > 100 µM |
| CCCCN(CCCC)c1ccc(/C=C2\SC(=S)N(Cc3cc(=O)c(O)co3)C2=O)cc1 [Example 33, (Z) 5-(4-Dibutylamino-benzylidene)-3-(5-hydroxy-4-oxo-4H-pyran-2-ylmethyl)-2-thioxo-thiazolidin-4-one] | 2 µM | 226 to 227 °C | 3.03 µM | > 100 µM | > 60 µM |
| CCCC1CCN(c2ccc(/C=C3\SC(=S)N(Cc4cc(=O)c(O)co4)C3=O)cc2)CC1 [Example 34, (Z) 3-(5-Hydroxy-4-oxo-4H-pyran-2-ylmethyl)-5-[4-(4-propyl-piperidin-1-yl)-benzylidene]-2-thioxo-thiazolidin-4-one] | 2 µM | 253 °C | 2.38 µM | > 100 µM | > 60 µM |
| CCCC1CCN(c2ccc(/C=C3\SC(=S)N(CC(=O)NS(C)(=O)=O)C3=O)cc2)CC1 [Example 37, (Z) N-(2-{4-Oxo-5-[4-(4-propyl-piperidin-1-yl)-benzylidene]-2-thioxo-thiazolidin-3-yl}-acetyl)methanesulfonamide] | 0.4 µM | 254 °C | 3.83 µM | 50 µM | > 60 µM |

Second part, the compound after the results:

| IC50 (Aβ(1-40) [1]) | melting point | IC50 (Aβ(1-42)) | IC50 (Aβ(1-40) [2]) | IC50 [3] | Structure (SMILES) |
| --- | --- | --- | --- | --- | --- |
| 1 µM | 201 °C | 3.3 µM | > 100 µM | > 60 µM | CCCC1CCN(c2ccc(/C=C3\SC(=S)N(CC(=O)NS(=O)(=O)c4ccccc4)C3=O)cc2)CC1 [Example 36, (Z) N-(2-{4-Oxo-5-[4-(4-propyl-piperidin-1-yl)-benzylidene]-2-thioxo-thiazolidin-3-yl}-acetyl)benzenesulfonamide] |
| 0.7 µM and 0.1 µM | 220 to 221 °C | 2.54 µM | 10 µM and 5 µM | 66 µM | O=C(CN1C(=O)/C(=C/c2ccc(N3CC[C@@H]4CCCC[C@H]4C3)cc2)SC1=S)NS(=O)(=O)c1ccc(F)cc1 [Example 38, (Z) 4-Fluoro-N-(2-{5-[(4aS,8aR)-4-(octahydro-isoquinolin-2-yl)-benzylidene]-4-oxo-2-thioxo-thiazolidin-3-yl}-acetyl)-benzenesulfonamide] |
| 1 µM and 0.1 µM | 197 °C | 2.86 µM | > 100 µM and 21 µM | 37 µM | CCCC1CCN(c2ccc(/C=C3\SC(=S)N(CC(=O)NS(=O)(=O)c4ccc(F)cc4)C3=O)cc2)CC1 [Example 39, (Z) 4-Fluoro-N-(2-{4-oxo-5-[4-(4-propyl-piperidin-1-yl)-benzylidene]-2-thioxo-thiazolidin-3-yl}-acetyl)-benzenesulfonamide] |
